Laboratory results as given in patent publication US6486199B1, “Spiro and dispiro 1,2,4-trioxolane antimalarials” (Medicines for Malaria Venture MMV International Centre …, priority 2001, dated 2002).
pIC50: −log10 of the molar value. ≈ marks a conversion by molar mass, not a printed value. Where “and” joins values, the source holds several entries; their conditions need not be identical. Equal values may be shown once. Read-outs that look alike come from different tables or passages of the source. Marks after values point to notes of the source that are not given here.

Assays:
[1] = system: ANKA strain of P. Berghei; assay: single dose STI in vivo screen in infected Moro SPF mice; conditions: for inhibition in vivo at 10 mg/kg / inhibition in vivo at 100 mg/kg: Plasmodium berghei, 72 h; for inhibition in vivo at 10 mg/kg / inhibition in vivo at 100 mg/kg / Activity (%) po / Activity (%) sc: percent reduction in parasitemia day 3 post-infection
[2] = system: 21-day-old schistosomules of Schistosoma mansoni; assay: effect on 21-day-old schistosomules in mice; assay type: in vivo; conditions: single 200 mg/kg per os; for TWR (%): total worm reduction rate; for FWR (%): female worm reduction rate; for Mean female worm burden: mean ± standard deviation
Method: […] Each group was treated per os with OZ compounds at a single dose of 200 mg/kg. Untreated mice served as the control. All groups were killed 4 weeks after treatment and the liver and intestine were removed and separated. The liver and intestine were compressed and alive male and female worms could be seen and counted. The effect of the compounds was evaluated by mean total and female worm burden.

P. berghei [3] = assay: 1-day Peters test against P. berghei in vivo
[4] = system: chloroquine-sensitive NF54 strain of P. falciparum; assay: in vitro screen against chloroquine-sensitive NF54 strain of P. falciparum; assay type: cell-based
[5] = system: adult schistosomes (49-day-old) of Schistosoma mansoni; assay: effect on adult schistosomes (49-day-old) in mice; assay type: in vivo; conditions: single 400 mg/kg per os; for TWR (%): total worm reduction rate; for Mean total worm burden: x ± SD
Method: Mice were infected with 100 Schistosoma mansoni cercariae […]. Each group was treated per os with OZ compounds at a single dose of 400 mg/kg. Untreated mice served as the control. All groups were killed 4 weeks after treatment and the liver and intestine were removed and separated. The liver and intestine were compressed and alive male and female worms could be seen and counted.

[6] = system: chloroquine-resistant K1 strain of P. falciparum; assay: in vitro screen against chloroquine-resistant K1 strain of P. falciparum; assay type: cell-based; conditions: for IC50 (ng/ml) K1: in vitro, K1 strain
adult S. mansoni = assay: activity against adult S. mansoni, treated once at day 49 of infection; assay type: in vivo; conditions: OZ05 200 mg/kg p.o., OZ11 100 mg/kg p.o.
NB2a cell line = assay: neurotoxicity against the NB2a cell line; assay type: cell-based; conditions: NB2a cell line
Schistosoma mansoni = assay: treatment of mice infected with Schistosoma mansoni cercaria, six weekly oral doses; assay type: in vivo
Description: Mice (MORO SPF female 18-20g) were infected with 90 (±10) cecaria of Schistosoma mansoni subcutaneously.

parasitemia = assay: onset of drug action and recrudescence after single oral dose; assay type: in vivo; conditions: for duration of action compared with artemether: single 100 mg/kg po; for Recrudescence (>5% parasitemia) occurs on day: single 100 mg/kg po on day +3 post-infection
Method: The reduction of parasitemia was monitored 12 h after treatment, and the time of recrudescence was assessed by daily blood smears for 14 days, followed by intermittent assessment for up to 30 days.

P. berghei [7] = assay: 4-day Peters test against P. berghei in vivo; conditions: 4 day
[8] = differential scanning calorimetry (DSC), thermal stability; assay type: physicochemical; conditions: thermal decomposition
[9] = single 100 mg/kg po, survival to day 30 = cure
[10] = single 100 mg/kg sc, survival to day 30 = cure

Compound	Survival (days) po ([1]; single 10 mg/kg po) [days]	Survival (days) sc ([1]; single 10 mg/kg sc) [days]	Survival (days) po [1, 9]	Survival (days) sc [1, 10]	TWR (%) [2] [%]	P. berghei (1 day) ED90 sc (P. berghei [3]; 1 day, sc)	TWR (%) [5] [%]	activity against adult S. mansoni (adult S. mansoni)	FWR (%) [2] [%]	Mean female worm burden [2]	duration of action compared with artemether (parasitemia)	Recrudescence (>5% parasitemia) occurs on day (parasitemia) [days]	P. berghei (4 day) ED50 po (P. berghei [7]) [mg/kg]	P. berghei (4 day) ED90 po (P. berghei [7]) [mg/kg]	P. berghei (4 day) ED50 sc (P. berghei [7]) [mg/kg]	P. berghei (4 day) ED90 sc (P. berghei [7]) [mg/kg]	Tm dec. (° C.) [8] [°C]	P. berghei (1 day) ED50 po (P. berghei [3]; 1 day, po) [mg/kg]	P. berghei (1 day) ED90 po (P. berghei [3]; 1 day, po) [mg/kg]	P. berghei (1 day) ED50 sc (P. berghei [3]; 1 day, sc) [mg/kg]	other results
CO[C@H]1O[C@@H]2O[C@@]3(C)CC[C@H]4[C@H](C)CC[C@@H]([C@H]1C)[C@@]24OO3 [Artemether, artemether, reference compound]	8.0	9.0	14.7/14.7 days	14.7/14.7 days	82.2	2.3 mg/kg	31.0	no activity													inhibition in vivo at 10 mg/kg ([1]; single 10 mg/kg po, read-out: Activity (%) po): 98.7%; inhibition in vivo at 10 mg/kg ([1]; single 10 mg/kg sc, read-out: Activity (%) sc): 100%; inhibition in vivo at 100 mg/kg ([1]; single 100 mg/kg po, read-out: Activity (%) po): 100%; inhibition in vivo at 100 mg/kg ([1]; single 100 mg/kg sc, read-out: Activity (%) sc): 100%; ED50 (P. berghei [3]; Plasmodium berghei, 24 h, 1 day, po, read-out: P. berghei (1 day) ED50 po): 2 mg/kg; ED90 (P. berghei [3]; Plasmodium berghei, 24 h, 1 day, po, read-out: P. berghei (1 day) ED90 po): 4.3 mg/kg; ED50 (P. berghei [3]; Plasmodium berghei, 24 h, 1 day, sc, read-out: P. berghei (1 day) ED50 sc): 2.1 mg/kg; IC50 ([4]; Plasmodium falciparum, NF54, read-out: IC50 (ng/ml) NF54): 0.37 ng/mL (≈ 1.24 nM); IC50 ([6]; Plasmodium falciparum, K1, read-out: IC50 (ng/ml) K1): 0.5 ng/mL (≈ 1.68 nM)
O=C1CCC2(CC1)OOC1(O2)C2CC3CC(C2)CC1C3 (stereo not drawn) [OZ05, Adamantane-2-spiro-3′-8′-oxo-1′,2′,4′-trioxaspiro[4.5]decane]			10.7 days	30 days	90	2.3 mg/kg	0	showed activity	88	1.5 ± 1.0^b	comparable	5	1.5	6.1	0.6	1.0	156.3	3.5	7.0	0.16	antimalarial activity, overall assessment ([1]; overall judgement of in vitro and in vivo data of Table 2): more active; Activity (%) po ([1]; single 100 mg/kg po): 100/100%; Activity (%) sc ([1]; single 100 mg/kg sc): 100/100%; pIC50 (NB2a cell line): 4.51; reduction in parasitaemia (Schistosoma mansoni; 100 mg/kg p.o. on days 7, 14, 21, 28, 35, 42, individual mice): 100% and 53%; Percentage of dead worm [5]: 13.4 (31/232); Total dead worm [5]: 31; Mean total worm burden [5]: 40.2 ± 13.6; IC50 (ng/ml) K1 [6]: 0.19 ng/mL (≈ 0.683 nM)
CC1(C)COC2(CCC3(CC2)OOC2(O3)C3CC4CC(C3)CC2C4)OC1 (stereo not drawn) [OZ11, Adamantane-2-spiro-3′-11′,11′-dimethyl-1′,2′,4′,9′,13′-pentaoxadispiro[4.2.5.2]pentadecane]					85	NA/0.87 mg/kg	16.2	showed activity	84	2.0 ± 1.9^b	longer	10	1.8	3.1	0.5	0.9	162.4	1.5	2.8		Percentage of dead worm [5]: 3.9 (6/156); Total dead worm [5]: 6; Mean total worm burden [5]: 30.0 ± 1.9^a
fenozan [reference compound]	8.6	13.4				3.2 mg/kg							1.9	2.7	1.1	2.3		1.7	4.3	1.7	Activity (%) po ([1]; single 10 mg/kg po): 99.95%; Activity (%) sc ([1]; single 10 mg/kg sc): 100%; activity in the same assay (Schistosoma mansoni; artemether at doses four times higher than OZ05, arteflene 6×600 mg/kg p.o., fenozan 6×100 mg/kg p.o.): inactive; oral activity based on po ED50/ED90 values (P. berghei [3]; po, ranking among trioxolanes and controls): only slightly less orally active than OZ11; IC50 (ng/ml) NF54 ([4]; in vitro, NF54 strain): 3.0 ng/mL; IC50 (ng/ml) K1 [6]: 3.2 ng/mL
